Drawing on PubChem BioAssay (NCI), this text covers GI50 and TGI for seven molecules.

Holding throughout (test): NCI-60 cell line screen, 48 h
The test system of assay [1] is SW-620 colon.
Assay [2] deals with HS 578T breast.
Assay [3] relates to RPMI-8226 leukemia.
The subject of assay [4] is UO-31 renal.
Assay [5] has as its system NCI-H23 lung.
In assay [6] the test system is MCF7 breast.
Assay [7] has as its system NCI-H226 lung.
Assay [8] deals with KM12 colon.
Assay [9] deals with T-47D breast.
The test system of assay [10] is COLO 205 colon.

Values joined by “and” are separate entries in the source; they are usually repeats but may differ in a detail not shown here. Identical values can stand only once.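 Tested at 5 concentrations; 48 h exposure; 96-well plates; endpoints linearly interpolated, else capped at highest concentration. GI50 marks 50% less growth. TGI: concentration producing complete growth inhibition.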

With `CN(CCCCCl)P(=O)(OCCS(=O)(=O)CC(NC(=O)CCC(N)C(=O)O)C(=O)NC(C(=O)O)c1ccccc1)OCC1OC(n2ccc(N)nc2=O)C(F)(F)C1O` (centres undefined), the GI50 in assay [1] was 1.44 µM; in assay [2], greater than 60.4 µM; in [3] it was 0.901 µM; in assay [4], less than 0.0213 µM; in assay [5], 0.0483 µM; in assay [7], 8.03 µM. Further, the GI50 in [8] was 14.6 µM; in assay [9] it was 1.33 µM; in assay [10], 0.912 µM. The TGI in [1] was greater than 100 µM; in assay [2] it was greater than 100 µM; in assay [3] it was greater than 78.1 µM; in assay [4], 2.7 µM; in [5] it was 16.8 µM; in assay [6] it was greater than 100 µM. Also, the TGI in assay [7] was greater than 93.3 µM; in assay [8] it was greater than 100 µM; in assay [9], greater than 100 µM; in assay [10], greater than 100 µM.
As to `Cc1ncc(C(=O)Nc2ccc(CN3CCN(C)CC3)c(C(F)(F)F)c2)cc1C#Cc1cnc2cccnn12`, the GI50 is 0.239 µM in assay [1]; 0.625 µM in [2]; 0.145 µM in [3]; 0.242 µM in [4]; 0.221 µM in assay [5]; 0.136 µM in assay [6]. Further, the GI50 is 0.204 µM in assay [7], 0.005 µM in [8], 1.91 µM in assay [9] and 0.2 µM in assay [10]. The TGI in assay [1] was found to be 2.59 µM; in [2], 3.3 µM; in assay [3], 1.29 µM; in assay [4], 1.91 µM; in assay [5], 1.01 µM; in [6], 0.663 µM. Also, the TGI in assay [7] turned out to be 1.37 µM; in assay [8], 2.64 µM; in assay [9], 12.3 µM; in [10], 1.31 µM.
On to `COc1cc(OC)c(C(=O)/C=C/c2cc3c(cc2OCc2ccccc2)OC(C)(C)CC3)cc1CC=C(C)C`, for which the GI50 in assay [1] was 4.31 µM; in assay [2], 3.05 µM; in assay [3], 2.86 µM; in assay [4], 13 µM; in [5] it was 6.77 µM; in assay [6], 3.08 µM. Besides, the GI50 in [7] is 6.61 µM; in assay [8] it was 3.85 µM; in assay [9], 3.74 µM; in assay [10], 3.97 µM. For the same molecule, the TGI in [1] is 10.2 µM; in [2], 16.7 µM; in assay [3], 11.6 µM; in assay [4], greater than 25 µM; in assay [5], greater than 25 µM; in assay [6] it was 11.2 µM. Further, the TGI was found to be 22.1 µM in assay [7], 8.63 µM in [8], 19.1 µM in [9] and 8.9 µM in assay [10].
For the molecule `CCCCCCCCCCCCCCCCCC1=NC(C)(C)CN1CC(C)O` (centres undefined), the GI50 in [1] is 2.15 µM; in assay [2], 14 µM; in assay [3], 14.4 µM; in [4], 13.8 µM; in assay [5] it was 12.7 µM; in assay [6], 3.09 µM. Also, the GI50 was 18.8 µM in [7], 6.18 µM in assay [8], 6.58 µM in assay [9] and 2.5 µM in [10]. Further, the TGI in [1] worked out at 4.78 µM; in assay [2], 34.2 µM; in assay [3], 36 µM; in assay [4], 29.4 µM; in assay [5], 27.1 µM; in [6] it was 14.1 µM. For the same molecule, the TGI in assay [7] came to 38.5 µM; in assay [8], 19.5 µM; in [9], 28 µM; in [10] it was 6.61 µM.
Consider `COc1ccc(/C=C/C(=O)/C=C/c2cc3ccccc3[nH]c2=O)cc1`, for which the GI50 in assay [1] is 1.89 µM; in [2], 3.14 µM; in assay [3], 1.77 µM; in [4] it was 3.48 µM; in assay [5] it was 4.31 µM; in assay [6] it was 2.11 µM. Moreover, the GI50 in [7] is 4.42 µM; in [8] it was 2.62 µM; in assay [9] it was 3.34 µM; in assay [10], 3.31 µM. The TGI in assay [1] came to 4.56 µM; in [2] it was 47 µM; in assay [3], 5.02 µM; in [4], 17.9 µM; in [5], 19.8 µM; in [6] it was 11.1 µM. For the same molecule, the TGI in assay [7] is 19.7 µM; in [8], 6.95 µM; in assay [9], 12.4 µM; in assay [10], 9.37 µM.
In the case of `S=c1snc2n1CCN2`, the GI50 in assay [1] was 40.5 µM; in [2] it was greater than 100 µM; in assay [3] it was 42.2 µM; in [4], greater than 100 µM; in assay [5] it was greater than 100 µM; in [6], 39.3 µM. In addition, the GI50 in assay [7] was 32.3 µM; in [8], greater than 100 µM; in assay [9] it was 0.85 µM; in assay [10], 25.2 µM. In addition, the TGI in [1], in assay [2], in [3], in assay [4], in [5] and in [6] was greater than 100 µM each time. Further, the TGI was greater than 100 µM in assay [7], greater than 100 µM in assay [8], 37.4 µM in assay [9] and greater than 100 µM in assay [10].
With `CC(C)Nc1cc(-c2c[nH]c(C(=O)N[C@H](CO)c3cccc(Cl)c3)c2)c(Cl)cn1`, the GI50 in [1] is 0.249 µM and 0.296 µM; in assay [2] it was 4.32 µM and > 9.06 µM; in assay [3] it was 3.09 µM and 1.14 µM; in assay [4], 0.986 µM and 0.838 µM; in assay [5], 0.308 µM and 0.258 µM; in [6], 2.16 µM and 1.62 µM. For the same molecule, the GI50 in [7] was 3.17 µM and > 3.67 µM; in assay [8], 0.751 µM and 0.444 µM; in [9], 1.77 µM and > 5.23 µM; in assay [10], 0.104 µM and 0.076 µM. Moreover, the TGI is 16.7 µM and > 10 µM in [1]; 60.5 µM and > 10 µM in assay [2]; 45.9 µM and > 10 µM in assay [3]; 14.5 µM and > 10 µM in assay [4]; 16 µM and > 10 µM in [5]; 19.1 µM and > 10 µM in assay [6]. The TGI in [7] is 24.2 µM and > 10 µM; in [8], 15.5 µM and > 10 µM; in [9], 16.8 µM and > 10 µM; in assay [10] it was 3.06 µM and 1.59 µM.
